The text below walks through data of US4254049A, “Substituted phenyl-2-cyano-2-alkenoic acid esters” (American Cyanamid Company, priority 1979, dated 1981).

Data set [1] deals with adjuvant induced arthritis. Put plainly: Adjuvant induced arthritis in rats (chronic inflammation accompanied by joint destruction). In kind it is in vivo, rat (Royal Hart, Wistar strain). The note with it: oral; for Dead/Treated At 21 Days: once daily days 0 through 13; for % Inhibition of Swelling (Primary lesion), Day 14: * significantly different from adjuvant controls. The procedure: Groups of three Royal Hart, Wistar strain rats weighing 200±10 grams each were injected intradermally in the right hind paw with Freund's adjuvant (dried human tubercle bacilli in a mineral oil vehicle) at a dose of 2 mg./kg. of body weight. Test compound was administered orally in a 1.5% starch vehicle at various doses once daily on days 0 through 13 post challenge. Control rats were treated in a similar manner, but given only starch vehicle. On the 14th and 21st day post challenge the diameter of the injected paw (primary lesion) was measured by micrometer caliper. The volume of inflamed paws were estimated from these measurements and the results are expressed as percent inhibition of swelling as compared to controls. At the same time, the other inflamed sites, such as ears, paws and tail (secondary lesions) were observed and each rat was graded as to degree of inflammation and swelling present. The grading is based on a scale of 0 to 24, where 0 represents a complete absence of induced arthritic nodules and 24 represents the maximum degree of inflammation. The mean grade for each treated group is calculated and the effects of each compound are expressed as percent inhibition of the control grade. Table I records the results of tests conducted with typical compounds of the present invention. These compounds appear to suppress the progression of the arthritis and associated joint deterioration.

For another data set, the system named is arthritic paw swelling. The note with it: result in words; cited from earlier work.
Data set [2] deals with articular cartilage breakdown by arthritic synovial tissue. Nature of the data set: Synovium-cartilage test (hexoseamine/hydroxyproline ratio of cartilage cultured with arthritic synovium). The format is cell-based, rabbit (New Zealand). Conditions: Oryctolagus cuniculus; 10 mcg./ml.; 48 hours at 37° C.; mean of 3 or 4 tests; active if average greater than 50%; read-out: Mean % Inhibition (suppression of cartilage breakdown). The procedure:
The compounds of the invention have been tested by the synovium-cartilage test which is a modification of the method described by Dumonde, D. C. and Glynn, L. E., The Production of Arthritis in Rabbits by an Immunological Reaction to Fibrin, Brit. J. Exp. Pathol., 43, 373 (1962).
Male, New Zealand rabbits, weighing 1.6-3.0 kg. were used. The rabbits were housed in individual cages and given food and water ad libitum. The rabbits were sensitized to bovine serum albumin (BSA) by injection of 20 mg./kg. BSA in complete Freund's adjuvant. The emulsion was injected subcutaneously into multiple sites on the back. Total injection volume equaled one […]. of body weight. Between 18 and 21 days following immunization, the rabbits were challenged with an intraarticular injection of 5 mg. BSA into the right knee joint. Unanesthetized animals were restrained on their backs, and a 20-gauge, one-inch needle, with a 5 ml. syringe, was introduced into the joint and synovial fluid aspirated to determine that the synovium had been penetrated. The needle was then left in place for injection of the antigen. A 0.5 ml. portion of 10 mg./ml. BSA in sterile saline was injected into the synovial sac. The rabbits received an additional five intraarticular injections of 5 mg. BSA into the right knee at intervals of 12-16 days. Following the sixth injection the rabbits were sacrificed by an intracardiac injection of 5 ml. of a saturated solution of potassium chloride. The right knee was shaved. A longitudinal incision was made over the patellar ligament and the skin reflected under sterile conditions. The patellar ligament was cut transversely and reflected. Fascia and capsular tissue were trimmed from the lateral and medial aspects of the knee exposing the synovial membrane. The membrane was grasped with forceps, stretched laterally and then excised in a single piece on each side of the knee. The infrapatellar fat pad was removed and the joint space widened by cutting the anterior attachments of the menisci and severing the collateral cruciate ligaments. The femur and tibia were then separated and the menisci excised along with sufficient amounts of synovial tissue from the popliteal area adhering to the menisci. The tissues were immediately placed in a sterile Petri dish containing tissue culture medium composed of MEM (Earle's salts) without sodium bicarbonate,with 25 mM Hepes buffer, pH adjusted to 7.34-7.37, and antibiotics (streptomycin and neomycin, 100 units/ml.). Ten percent normal rabbit serum (NRS) was added. The tissues were rinsed three times in fresh medium plus 10% NRS, then cut into pieces of 20-30 mg.
Articular cartilage was obtained from the knees of normal, young rabbits, weighing 1.0 to 1.5 kg. The knees were shaved, the rabbits sacrificed and the joint exposed as described above. […]

Regarding `C/C(O)=C(\C#N)C(=O)Oc1cccc(Cl)c1Cl` [2-Cyano-3-hydroxycrotonic acid, 2,3-dichlorophenyl ester], in data set [1] (50 mg./kg. body weight), the “Dead/Treated At 21 Days” value is listed as 11/24. Moreover, in data set [1] (50 mg./kg.), the “Mean Weight Gain, Day 14” value amounted to 36 grams; the “% Inhibition of Swelling (Primary lesion), Day 14” value turned out to be 41%; the “% Inhibition of Swelling (Primary lesion), Day 21” value is 0%; the “Mean Weight Gain, Day 21” value came to 32 grams.
Taken in the same sequence, the figures for `C/C(O)=C(\C#N)C(=O)Oc1ccccc1Cl` [2-Cyano-3-hydroxycrotonic acid, o-chlorophenyl ester] were 0/9, 25 grams, 57%, 35% and 29 grams.
As to `COc1ccc2c(c1)c(CC(=O)O)c(C)n2C(=O)c1ccc(Cl)cc1` [indomethacin], in the data set on arthritic paw swelling, the arthritic paw swelling result is reported as “inhibit arthritic paw swelling”; the “joint and bone deterioration” value is “prevent joint and bone deterioration”.
Take `C/C(O)=C(\C#N)C(=O)Oc1ccc(Cl)cc1` [2-Cyano-3-hydroxycrotonic acid, p-chlorophenyl ester]: in data set [1] (25 mg./kg. body weight), the “Dead/Treated At 21 Days” value was 2/18. In addition, in data set [1] (25 mg./kg.), the “Mean Weight Gain, Day 14” value is 60 grams; the “% Inhibition of Swelling (Primary lesion), Day 14” value was determined as 45%; the “% Inhibition of Swelling (Primary lesion), Day 21” value was 0%; the “Mean Weight Gain, Day 21” value is recorded as 46 grams.
The inhibition is the percentage by which the read-out fell short of the control. For `COc1ccccc1OC(=O)/C(C#N)=C(/C)O` [2-Cyano-3-hydroxycrotonic acid, o-methoxyphenyl ester], the inhibition at 10 µg/mL in data set [2] is 49.3%.
As to `C/C(O)=C(\C#N)C(=O)Oc1ccccc1F` [2-Cyano-3-hydroxycrotonic acid, o-fluorophenyl ester], the inhibition at 10 µg/mL in data set [2] amounted to 52.3%.
On the same count and under the same terms, with `C/C(O)=C(\C#N)C(=O)Oc1ccc(C)cc1` [2-Cyano-3-hydroxycrotonic acid, p-tolyl ester] the figure was 50.3%; with `COc1ccc(OC(=O)/C(C#N)=C(/C)O)cc1` [2-Cyano-3-hydroxycrotonic acid, p-methoxyphenyl ester], 58.4%.
